{"source": "patent US9066953B2", "about": "“Methods for increasing endurance and fat metabolism in humans” (Quality IP Holdings, LLC, priority 2012, dated 2015)", "origin": "cited, not measured here", "key": {"hGH": {"tested_on": "hGH", "conditions": "for effect on hGH: other amino acids, literature"}, "GH": {"tested_on": "GH", "conditions": "subcutaneous injection of 0.06 IU, GH deficient subjects"}}}
{"compound": "N=C(N)NCCC[C@H](N)C(=O)O", "note": "[arginine]", "values": [{"measurement": "elevation of serum hGH levels", "setting": "hGH; 30 g intravenous, in males", "result": 8.6, "unit": "fold"}, {"measurement": "increase of hGH levels", "setting": "hGH; intravenous infusion of 183 mg/kg body weight in females", "result": "> 20", "unit": "fold"}]}
{"compound": "N[C@@H](Cc1c[nH]cn1)C(=O)O", "note": "[histidine]", "values": [{"measurement": "effect on hGH", "setting": "hGH", "result": "marked increases in hGH"}]}
{"compound": "NCCCC[C@H](N)C(=O)O", "note": "[lysine]", "values": [{"measurement": "effect on hGH", "setting": "hGH", "result": "marked increases in hGH"}]}
{"compound": "HGH: injected human growth hormone used in the treatment of GH deficient subjects", "values": [{"measurement": "mean levels of GH reached", "setting": "GH", "result": 0.4, "unit": "ng/mL"}]}
{"compound": "N[C@@H](Cc1ccccc1)C(=O)O", "note": "[phenylalanine]", "values": [{"measurement": "effect on hGH", "setting": "hGH", "result": "marked increases in hGH"}]}
{"compound": "NCCC[C@H](N)C(=O)O", "note": "[ornithine]", "values": [{"measurement": "effect on hGH", "setting": "hGH", "result": "marked increases in hGH"}]}
{"compound": "CSCC[C@H](N)C(=O)O", "note": "[methionine]", "values": [{"measurement": "effect on hGH", "setting": "hGH", "result": "marked increases in hGH"}]}
